The values below come from paper PMC12131314, “Design, synthesis and cytotoxic research of a novel antitumor model based on acrylamide–PABA analogs via β-tubulin inhibition” (RSC Advances, 2025).

Holding throughout (format): cell-based
For test [1], the system named is MCF-7 breast cancer cell line. The test is described as follows: MTT cytotoxicity assay, MCF-7 breast cancer cell line. The following applies: for IC50: MCF-7 breast carcinoma cells, triplicate. As to the method: The MTT colorimetric technique was used to evaluate the cytotoxic activity of the newly produced acrylamide–PABA hybrids 4a–j against the MCF-7 breast cancer cell line.
(§1) S4.2.1. Cytotoxic activity evaluation
(§2) To measure the cytotoxic actvity of the synthesized acrylamide-PABA derivatives 4a-j in breast MCF-7 (ATCC Cat. No. HTB-22), liver HepG2 (ATCC Cat No. HB-8065), and normal breast MCF-10A (ATCC Cat. No. CRL 10317) cell lines, cell viability assay was assessed using MTT assay method. Cells at density of 1 x 104 were seeded in a 96-well plate at 37 °C for 24 h under 5% CO2. After incubation, the cells were treated with different concentrations of the test acrylamide-PABA hybrids 4a-j and incubated for 24 h, then 20 µl of MTT solution at 5 mg/mL was applied and incubated for 4 h at 37 °C. Dimethyl sulphoxide (DMSO) in volume of 100 µl was added to each well to dissolve the purple formazan that had formed. The color intensity of the formazan product, which represents the growth condition of the cells, is quantified by using an ELISA plate reader (EXL 800, USA) at 570 nm absorbance. The experimental conditions were carried out with at least three replicates, and the experiments were repeated at least three times. […]

Test [2] relates to HepG2 hepatocellular carcinoma cell line. Nature of the test: MTT cytotoxicity assay, HepG2 hepatocellular carcinoma cell line. Particulars: Homo sapiens, HepG2 cells, triplicate. The procedure: as §1, §2
Test [3] deals with β-tubulin. Nature of the test: β-tubulin polymerization inhibition (β-tubulin assay kit) in MCF-7 cells. As to the method:
as §1
To measure the cytotoxic actvity of the synthesized acrylamide-PABA derivatives 4a-j in breast MCF-7 (ATCC Cat. No. HTB-22), liver HepG2 (ATCC Cat No. HB-8065), and normal breast MCF-10A (ATCC Cat. No. CRL 10317) cell lines, cell viability assay was assessed using MTT assay method. Cells at density of 1 x 104 were seeded in a 96-well plate at 37 °C for 24 h under 5% CO2. After incubation, the cells were treated with different concentrations of the test acrylamide-PABA hybrids 4a-j and incubated for 24 h, then 20 µl of MTT solution at 5 mg/mL was applied and incubated for 4 h at 37 °C. Dimethyl sulphoxide (DMSO) in volume of 100 µl was added to each well to dissolve the purple formazan that had formed. The color intensity of the formazan product, which represents the growth condition of the cells, is quantified by using an ELISA plate reader (EXL 800, USA) at 570 nm absorbance. The experimental conditions were carried out with at least three replicates, and the experiments were repeated at least three times.
S4.2.2. β-tubulin inhibition Assay […]
according to manufacturer’s instructions

The test system of test [4] is MCF-10A (normal breast) cell line. Nature of the test: MTT cytotoxicity assay, MCF-10A normal breast cell line. Particulars: Homo sapiens, MCF-10A normal breast cells, triplicate. As to the method:
as §1, §2

For test [5], the system named is caspase 9. Nature of the test: qRT-PCR expression level of caspase 9. The following applies: MCF-7 cells. The source says: (§3) The apoptotic markers related to apoptosis were crucial in preventing cancer.[30] p53 and other apoptotic regulators function as transcription factors that can activate several target genes in response to oncogenic stress, causing cell cycle arrest, apoptosis activation, and degeneration, while also promoting DNA repairs.[31] As a result, the apoptosis-related markers work together in order to ensure that cells with mutations that promote cancer (including broken genomes) are either repaired or permanently eliminated.[32] To further comprehend the molecular process involved in the apoptotic efficacy of the acrylamide–PABA analogs, the expression levels of p53, Bax, Bcl-2 and caspase 9 were evaluated. […] This was carried out in contrast to a negative control group. […] This was accompanied by a notable drop in the level of Bcl-2 (0.29-fold). […]
(§4) S4.2.4. qRT-PCR measurements of p53, Bax, Bcl2 and caspase 9 for compound […]
(§5) Real-time PCR for p53, BAX, Bcl-2 and caspase 9 genes expression was done using commercial Qiagen RNA extraction/ BioRad SYBER green PCR master mix according manufacturer's instructions. […]
(§6) Relative quantification of target genes was run on Rotor-Gene 6000 Series Software

Test [6] deals with MCF-7 cells. The test is described as follows: Annexin V-FITC/PI apoptosis assay by flow cytometry. The following applies: 4j at the IC50, 48 h. As to the method: Understanding the biological mechanism of action of chemotherapeutic agents is an important aspect of the pharmaceutical development process.[28] […] Following cellular staining with Annexin V –FITC/propidium iodide (PI), FACS analysis was conducted. To differentiate between early and late apoptosis, both stains were used. (PI^−/Annexin V-FITC^+) represented early apoptotic cells, (PI^+/Annexin V-FITC^+) indicated late apoptotic cells, and (PI^+/Annexin V-FITC^−) represented necrotic cells. However, healthy cells were not stained (PI^−/Annexin V-FITC^−). […] This was clarified by compound 4j's modest degree of induced necrosis in contrast to its markedly elevated levels of induced early and late apoptosis. Acrylamide–PABA analog 4j induced both early apoptosis (22.07%) and late apoptosis (7.56%) in comparison with modest level of necrosis (3.19%).
S4.2.3. Apoptosis assay for compound 4j
Apoptosis in MCF-7 cells was investigated using fluorescent Annexin V-FITC/ PI detection kit (BioVision Annexin V-FITC Apoptosis Detection Kit, Catalog #: K101) by flow cytometry assay. MCF-7 cells at a density of 2 × 10^5 per well were treated with compound 4j at the IC50 (µM) for 48 h, then the cells were harvested and stained with Annexin V-FITC/ PI dye for 15 min in the dark at 37 °C. The samples were immediately analyzed using FACS Calibur flow cytometer (Becton and Dickinson, […]
as §4
Real-time PCR for p53, BAX, Bcl-2 and caspase 9 genes expression was done using commercial Qiagen RNA extraction/ BioRad SYBER green PCR master mix according manufacturer's instructions. Briefly, 2 µl of cDNA template, 10 pMol of each forward and reverse primer, 10 µl of 2X Master Mix and to 20 µl total reaction mixture volume by nuclease free water and then was introduced to thermal cycler […]
(1 picture or pasted object on this page, not shown here)

Test [7] concerns Bcl-2. The test is described as follows: qRT-PCR expression level of Bcl-2. Particulars: MCF-7 cells.
Excerpt: as §3, §4, §5, §6

In test [8] the test system is Bax. Nature of the test: qRT-PCR expression level of Bax. The following applies: MCF-7 cells.
Excerpt: as §3, §4, §5, §6

The subject of test [9] is p53. The test is described as follows: qRT-PCR expression level of p53. The following applies: MCF-7 cells.
Excerpt: as §3, §4, §5, §6

For test [10], the system named is MCF-7 cells. Nature of the test: Cell cycle analysis (PI, flow cytometry). Particulars: 4j at the IC50, 48 h. The source says: In cancer mass development, the disruption of the cell cycle can be an important event. Cellular cycle progression has two primary checkpoints: G1/S before DNA replication and G2/M before mitosis.[33] A p53-responsive gene such as p21^wafi regulates the G1/S checkpoint and mediates cell cycle arrest.[34] Since the cytotoxic activity of the synthesized analogs against MCF-7 cells was induced by the enhanced apoptotic levels, we examined whether these analogs further induced cell cycle arrest. […] As can been seen in Fig. 5, the cellular distribution at each stage is depicted in the histogram of the cellular cycle caused by the acrylamide–PABA hybrid 4j. […]
instrument (Thermo Scientific, USA). The cycling parameters for the PCR amplification were achieved by initial denaturation at 95 °C for 3 minutes followed by 40 cycles of 94 °C for 15 seconds and annealing/extension step at 60 °C for 1 min.
Relative quantification of target genes was run on Rotor-Gene 6000 Series Software […]
Table 1: The primer sequences for Real Time PCR assay
S4.2.5. Cell cycle analysis of compound 4j
Cell cycle analysis in MCF-7 cells was investigated using fluorescent Annexin V-FITC/ PI detection kit (BioVision EZCellTM Cell Cycle Analysis Kit Catalog #K920) by flow cytometry assay. MCF-7 cells at a density of 2 × 10^5 per well were harvested and washed twice in PBS. After that, the cells were incubated at 37 °C and 5% CO2.
The medium was incubated with the tested compound 4j at the IC50 (µM) for 48 h, washed twice in PBS, fixed with 70% ethanol, rinsed again with PBS. Afterward, medium was stained with DNA fluorochrome PI for 15 min at 37 °C. The samples were immediately analyzed using Facs Calibur flow cytometer (Becton and Dickinson, Heidelberg, Germany).
S4.3. Molecular modeling study
Molecular docking simulations were conducted using AutoDock Vina to investigate ligand interactions with the tubulin complex. The three-dimensional (3D) structure of the tubulin heterodimer was obtained from the Protein Data Bank (PDB ID: 1SA0), with chain B of the colchicine-bound complex selected as the docking target. […]

Take `COc1cc(C(=O)N/C(=C\c2ccc(N(C)C)cc2)C(=O)NNC(=O)c2ccc(N)cc2)cc(OC)c1OC` [4f, (Z)-N-(3-(2-(4-Aminobenzoyl)hydrazineyl)-1-(4-(dimethylamino)phenyl)-3-oxoprop-1-en-2-yl)-3,4,5-trimethoxybenzamide]: in test [1] (Homo sapiens, MCF7, MTT), it took 27.2 ± 0.92 µM to reach half-maximal inhibition (IC50).
Turning to `COc1cc(C(=O)N/C(=C\c2ccc([N+](=O)[O-])cc2)C(=O)NNC(=O)c2ccc(N)cc2)cc(OC)c1OC` [4c, (Z)-N-(3-(2-(4-Aminobenzoyl)hydrazineyl)-1-(4-nitrophenyl)-3-oxoprop-1-en-2-yl)-3,4,5-trimethoxybenzamide], the IC50 in test [1] (Homo sapiens, MCF7, MTT) is above 30 µM; in [1] (MTT), 39.7 ± 1.34 µM.
For `COc1ccc(/C=C(\NC(=O)c2cc(OC)c(OC)c(OC)c2)C(=O)NNC(=O)c2ccc(N)cc2)cc1OC` [4g, (Z)-N-(3-(2-(4-Aminobenzoyl)hydrazineyl)-1-(3,4-dimethoxyphenyl)-3-oxoprop-1-en-2-yl)-3,4,5-trimethoxybenzamide], the midpoint of inhibition in [1] (Homo sapiens, MCF7, MTT), the IC50, lay at 17.1 ± 0.58 µM.
The same measure, in the same setting: then `COc1cc(C(=O)N/C(=C\c2cc(Br)c(O)c(Br)c2)C(=O)NNC(=O)c2ccc(N)cc2)cc(OC)c1OC` [4h, (Z)-N-(3-(2-(4-Aminobenzoyl)hydrazineyl)-1-(3,5-dibromo-4-hydroxyphenyl)3-oxoprop-1-en-2-yl)-3,4,5-trimethoxybenzamide], with 19.9 ± 0.67 µM.
Turning to `COc1cc(C(=O)N/C(=C\c2ccc(F)cc2)C(=O)NNC(=O)c2ccc(N)cc2)cc(OC)c1OC` [4a, (Z)-N-(3-(2-(4-Aminobenzoyl)hydrazineyl)-1-(4-fluorophenyl)-3-oxoprop-1-en-2-yl)-3,4,5-trimethoxybenzamide], the concentration for half-maximal inhibition (IC50) in [2] was determined as 4.87 ± 0.13 µM; in test [1] (Homo sapiens, MCF7, MTT), 2.99 ± 0.1 µM; in test [4], 19.8 ± 0.62 µM. Further, the “percentage inhibition of β-tubulin polymerization” value in test [3] stood at 78.19%.
In turn, `COc1cc(C(=O)N/C(=C\c2ccc(Cl)cc2)C(=O)NNC(=O)c2ccc(N)cc2)cc(OC)c1OC` [4b, (Z)-N-(3-(2-(4-Aminobenzoyl)hydrazineyl)-1-(4-chlorophenyl)-3-oxoprop-1-en-2-yl)-3,4,5-trimethoxybenzamide] came in with an IC50 in test [1] (Homo sapiens, MCF7, MTT) of 25.3 ± 0.86 µM.
Regarding `COc1cc(/C=C(\NC(=O)c2cc(OC)c(OC)c(OC)c2)C(=O)NNC(=O)c2ccc(N)cc2)cc(OC)c1OC` [4i, (Z)-N-(3-(2-(4-Aminobenzoyl)hydrazineyl)-3-oxo-1-(3,4,5-trimethoxyphenyl)prop-1-en-2-yl)-3,4,5-trimethoxybenzamide], in test [1] (Homo sapiens, MCF7, MTT), 4.51 ± 0.15 µM corresponded to half-maximal inhibition (IC50).
`COc1cc(C(=O)N/C(=C\c2ccco2)C(=O)NNC(=O)c2ccc(N)cc2)cc(OC)c1OC` [4j, (Z)-N-(3-(2-(4-Aminobenzoyl)hydrazineyl)-1-(furan-2-yl)-3-oxoprop-1-en-2-yl)-3,4,5-trimethoxybenzamide] had an IC50 in test [2] of 2.14 ± 0.09 µM. Further, the “percentage inhibition of β-tubulin polymerization” value in test [3] amounted to 81.51%. Moreover, in test [5], the “expression level of caspase 9 compared to negative controls” value is 9.89 fold. In [6], the early apoptosis was found to be 22.07%, the late apoptosis is 7.56% and the necrosis is 3.19%. In [7], the “level of Bcl-2 compared to negative controls” value came out at 0.29 fold. In [1] (Homo sapiens, MCF7, MTT), this molecule returned a 50% inhibitory concentration (IC50) of 1.83 ± 0.06 µM. In addition, the “fold more potent than the reference drug Col (MCF-7 IC50)” value in test [1] (MCF-7 cells, relative to Col) is listed as 1.9 fold. In addition, the “expression level of Bax compared to negative controls” value in [8] is recorded as 8.36 fold. Besides, the midpoint of inhibition in [4], the IC50, lay at 23.2 ± 1.06 µM. Moreover, the “expression level of p53 compared to negative controls” value in test [9] came out at 5.14 fold. The “cell population at S phase” value in test [10] (negative control 29.51%) is listed as 18.83%. For the same molecule, the “cell population at G1 phase” value in test [10] (negative control 61.08%) stood at 46.99%. Moreover, the “cell population at G2/M phase” value in test [10] (untreated control 9.41%) stood at 34.18%.
